From patent US10953107B2, “Polypeptide compositions and methods for site-specific targeting of therapeutic agents” (Trustees of Boston University, priority 2018, dated 2021)
Read-outs that look alike come from different tables or passages of the source.

Legend:
[1] = Circular dichroism (CD): specificity and structural assembly of peptides; assay type: physicochemical; conditions: circular dichroism (FIG. 2A, FIG. 14A)
Source text: We designed and prepared peptide sequences that form a tetrameric coiled coil,^14,15 but discourage self-interaction (positively charged amino acids in docking, negatively charged in receiving).

Panc1 Cells [2] = test: ADC cytotoxicity, MTT cell viability assay; assay type: cell-based, human
Capan-1 = test: ADC cytotoxicity, MTT cell viability assay; assay type: cell-based, human
Method: (§1) Cell viability was assessed by an MTT assay in Panc1 cells and other cell lines at 72 hours post-treatment with increasing concentrations of the ADC and relevant controls. The assay confluence was 20% at the start and up to 60% confluence.
(§2) Cell viability was assessed by an MTT assay in other pancreatic cancer cell lines.
(§3) Cell viability was assessed by an MTT assay in pancreatic cancer cell lines at 72 hours post-treatment with increasing concentrations of the ADC and relevant controls.

MIA PaCa2 = test: ADC cytotoxicity, MTT cell viability assay; assay type: cell-based, human
Method: as §1, §2, §3

BxPC-3 = test: ADC cytotoxicity, MTT cell viability assay; assay type: cell-based
Method: as §1, §2, §3

BJ fibroblasts = test: ADC cytotoxicity in normal cell lines, MTT assay
Method: (§4) Cell viability was assessed by an MTT assay in KV2 cells and other normal cell lines at 72 hours post-treatment with increasing concentrations of the ADC and relevant controls.
(§5) Cell viability was assessed by an MTT assay in normal cell lines at 72 hours post-treatment with increasing concentrations of the ADC and relevant controls.

HUVECs = test: ADC cytotoxicity in normal cell lines, MTT assay; conditions: read-out: IC50 / cytotoxicity; HUVEC, additional characterization (FIG. 41)
Method: as §4, §5

KV2 cells = test: ADC cytotoxicity in normal cell lines, MTT assay; conditions: read-out: IC50 / cytotoxicity
Method: as §4, §5

mIMCD = test: ADC cytotoxicity in normal cell lines, MTT assay
Method: as §4, §5

H6c7 = test: ADC cytotoxicity in normal cell lines, MTT assay; assay type: cell-based; conditions: H6c7, additional characterization (FIG. 41)
MIA PaCa2 Cells = test: Cell viability in response to increasing doses of mertansine (FIG. 19); assay type: cell-based, human; conditions: cell viability (FIG. 19)
Method: (§6) Cell viability was measured in response to increasing doses of mertansine in Panc1 and MIA PaCa2 cell lines to determine the IC50 compared to other chemotherapeutic agents (gemcitabine and Nab-paclitaxel) (FIG. 19). Panc1 cells are a human pancreatic cancer cell line isolated from a pancreatic carcinoma of ductal cell origin. MIA PaCa-2 cells are another type of pancreatic cancer cell line that was derived from the carcinoma of a patient.

Panc1 Cells [3] = test: as above; assay type: cell-based, human; conditions: cell viability (FIG. 19)
Method: as §6

[4] = first value of 'x vs. y', second value is an unnamed comparator arm, cited from earlier work; for OS: overall survival; for PFS: progression-free survival
[5] = read-out: IC50 / cytotoxicity, MTT (FIG. 32), NS = not significantly different from 100% viability of control
[6] = read-out: IC50 / cytotoxicity, additional characterization (FIG. 41)

In the case of MK(LKKIKSV)4VGER [Peptide V/K], the “self-assembly / coiled coil formation” value [1] is reported as “do not self-assemble”.
`COc1cc2cc(c1Cl)N(C)C(=O)C[C@H](OC(=O)[C@H](C)N(C)C(=O)CCS)[C@]1(C)O[C@H]1[C@H](C)[C@@H]1C[C@@](O)(NC(=O)O1)[C@H](OC)/C=C/C=C(\C)C2` [Mertansine, mertansine] gave an IC50 (Panc1 Cells [2]; Panc1, MTT, 72 hours (FIG. 28-30)) of 1.98 nM, an IC50 (Panc1 Cells [2]; Panc1, additional characterization (FIG. 39)) of 1.98 nM and an IC50 (Capan-1; Capan-1, MTT (FIG. 30)) of 22.1 nM. It also gave an IC50 (Capan-1; Capan-1, additional characterization (FIG. 39)) of 22.1 nM, an IC50 (MIA PaCa2; MIA PaCa2, MTT (FIG. 29-30)) of 0.31 nM and an IC50 (MIA PaCa2; MIA PaCa2, additional characterization (FIG. 39)) of 0.31 nM. For the same compound, the IC50 (BxPC-3; BxPC-3, MTT (FIG. 30)) was 18.8 nM, the IC50 (BxPC-3; BxPC-3, additional characterization (FIG. 39)) was 18.8 nM and the IC50 (BJ fibroblasts; [5]) was 16.8 nM. For the same compound, the IC50 (BJ fibroblasts; [6]) was 16.8 nM, the IC50 (HUVECs) was 2.7 nM and the IC50 (KV2 cells; KV2, additional characterization (FIG. 41)) was 289 nM. The IC50 (KV2 cells; KV-2, MTT, 72 hours (FIG. 31-32), NS = not significantly different from 100% viability of control) was 95.5 nM, the IC50 (mIMCD; [5]) was 3 nM and the IC50 (mIMCD; [6]) was 3 nM. The IC50 (H6c7) was 2.4 nM, the IC50 (MIA PaCa2 Cells) was 0.268 nM and the IC50 (Panc1 Cells [3]) was 1.19 nM.
For Nimotuzumab, the OS [4] is listed as 8.6 vs. 6.0 mo and the PFS [4] is listed as 5.3 vs. 3.6 mo.
In the case of Cixutumumab, the OS [4] is listed as 7.0 vs. 6.7 mo and the PFS [4] is listed as 3.6 vs 3.6 mo.
`Nc1ccn([C@@H]2O[C@H](CO)[C@@H](O)C2(F)F)c(=O)n1` [Gemcitabine] showed an IC50 (Panc1 Cells [2]; Homo sapiens, PANC-1, Panc1, MTT, 72 hours (FIG. 28)) of 700 nM and an IC50 (MIA PaCa2; Homo sapiens, MIA PaCa-2, MIA PaCa2, MTT (FIG. 29-30)) of 256 nM.
In the case of “MK(LEEIVSE)2LEEIVTELEEIVSEVGER (MKLEEIVSELEEIVSELEEIVTELEEIVSEVGER) [Peptide V/E, acidic V/E-type docking peptide]”, the “self-assembly / coiled coil formation” value [1] is reported as “do not self-assemble”.
In the case of `C#Cc1cccc(Nc2ncnc3cc(OCCOC)c(OCCOC)cc23)c1` [Erlotinib], the OS [4] is listed as 6.2 vs. 5.9 mo and the PFS [4] is listed as 3.8 vs. 3.6 mo.
